Test results reported in patent publication US20230384333A1 (priority 2020, published 2023).
Values joined by “and” are separate entries in the source; they are usually repeats but may differ in a detail not shown here. Equal values may be shown once. “Also recorded” adds a separate entry of the source. Where a name gives a salt, the structure may show the parent alone.

Experiments:
psychLight = assay: Schild regression analysis in PSYLI2 cells; type: cell-based, human
Procedure: During imaging, […] of imaging media were added to each well of the assay plate. Wells were then imaged on a Lecia DMi8 using Leica Application Suite X (V3.6.0.20104) at 40×(N.A.=0.6) with 5 regions of interest (ROI) taken per well using the default 5 ROI pattern for each well with no bias to location and no overlap of the ROIs (exposure=350 ms, LED power=80%). Next, […] from the treatment plate was transferred to the assay plate for a final 1:1000 dilution of drug. All final drug treatments contained 0.1% DMSO. After 5 min of incubation, the same sites were re-imaged using the same settings. The data analysis method was the same as in agonist and antagonist mode.

psychLight2 [1] = assay: PSYLI2 high-content imaging, agonist mode; type: cell-based, human; set-up: dose or concentration left out as unconfirmed
psychLight1 [2] = biological target: T1, psychLight1 (Homo sapiens, UniProt P28223, E264Q/I181A); assay: cell-based; type: cell-based; set-up: fluorescence intensity change, confocal with psychLight1: dose or concentration left out as unconfirmed; conditions: n=3
T1 sequence (P28223 whole entry I181A/E264Q, looked up): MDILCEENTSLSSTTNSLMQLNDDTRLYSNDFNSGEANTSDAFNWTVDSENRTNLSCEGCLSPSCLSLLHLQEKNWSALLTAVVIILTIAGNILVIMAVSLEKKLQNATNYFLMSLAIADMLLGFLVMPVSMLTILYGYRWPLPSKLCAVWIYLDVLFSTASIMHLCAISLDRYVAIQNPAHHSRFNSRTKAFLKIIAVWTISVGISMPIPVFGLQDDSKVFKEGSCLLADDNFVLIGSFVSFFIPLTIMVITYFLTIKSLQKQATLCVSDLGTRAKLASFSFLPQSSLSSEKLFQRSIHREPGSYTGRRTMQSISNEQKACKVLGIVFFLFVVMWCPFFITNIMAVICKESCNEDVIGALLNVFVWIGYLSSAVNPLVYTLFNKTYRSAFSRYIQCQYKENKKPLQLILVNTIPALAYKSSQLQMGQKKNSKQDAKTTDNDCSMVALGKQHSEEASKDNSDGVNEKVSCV
Procedure: HEK293T cells were grown in DMEM, supplemented with fetal bovine serum (FBS) and penicillin-streptomycin. Cells were trans-fected with Effectene according to the manufacturer's instructions. Prior to imaging, cells were washed with Hank's Balanced Salt Solution (HBSS) supplemented with 2 mM MgCl2 and 2 mM CaCl2). All images were collected in HBSS containing Mg^2+ and Ca^2+.
HEK293T cells were plated and transfected concurrently 24 h prior to each experiment using the QIAGEN Effectene Transfection
Dose-response experiments were performed using an Automate Perfusion System. Cells (HEK293T) were grown on 12 mm cover-slips and transfected with psychLight1. The coverslips were then placed into a coverslip holder and washed with 5 mL of HBSS containing 2 mM MgCl2 and 2 mM CaCl2). Cells were perfused first with 5 mL of 0.1% DMSO, then drugs in ascending concentrations from 1 pM to […] were added, with the concentration of DMSO being held constant at 0.10%. […] For the competition studies described in FIG. 19, HEK293T cells were prepared as described above; however, the cells were first exposed to 5 mL of 0.2% DMSO. […] Analysis was performed by taking 3 ROIs on the cell membrane using ImageJ and calculating the mean intensity for each ROI across the time-points. Finally, the DF/F was calculated using the average of the baseline (0.1 or 0.2% DMSO) and the average intensity between each dosage over the average of the baseline.

psychLight1 [3] = biological target: T1, psychLight1; type: cell-based
[4] = system: GPCR-based sensors (dopamine, adrenergic, opioid, and serotonin receptors); type: cell-based; conditions: 10 μM AAZ-A-154, agonist and antagonist mode
C57BL/6J mice [5] = assay: Locomotion assay; type: in vivo, mouse; conditions: i.p., multiple doses
Procedure: (§1) The HTR assay was performed as described previously using both male and female C57BL/6J mice (2 male and 2 female=4 total per treatment). The mice were obtained from The Jackson Laboratory (Sacramento, C.A.) and were approximately 8-weeks old at the time of the experiments. Compounds were administered (5 mL/kg, i.p.) using 0.9% saline as the vehicle. After injection, animals were placed into an empty cage (8″×13″×5″) and HTRs were videotaped, scored later by two blinded observers, and the results were averaged (interpersonnel kappas, Pearson correlation coefficient>0.91). Locomotion was assessed using AnyMaze automated tracking software.

VMAT2-HET mice = assay: Sucrose preference (anhedonia) test; type: in vivo, mouse
Procedure: Adult male and female wild-type (WT) and VMAT2 heterozygous (VMAT2-HET) mice were used for these experiments, and they were housed in a humidity- and temperature-controlled room on a 14:10 h light:dark cycle. Mice were housed individually 48 h prior to the experiment with ad libitum access to chow and water. For each day's experiment, bottles were prepared with water or a 1% sucrose solution and these were weighed just prior to the test. Two h prior to the beginning of the dark cycle, the home-cage water bottle was removed. One h after onset of the dark cycle, a pair of bottles was placed into the home-cage. The mouse was given 2 h to drink, after which the bottles were removed and weighed immediately. Approximately 1 h later, the home-cage water bottle was returned. […] Once criterion was achieved, the mouse was presented with the water-sucrose (W-S) pairing. The next day (day 1), mice were administered an acute injection of AAZ-A-154 (15 mg/kg, i.p.) and 5 min later were given the W-S pairing (i.e., day 1). Subsequent W-S pairings were presented on days 2 and 4, and then at 4-day intervals. Preference for the sucrose bottle was calculated as the volume of sucrose consumed minus the volume of water consumed, divided by the total volume of liquid consumed. Preference scores approaching “0” indicated no preference for sucrose or water, whereas positive scores signified a preference for sucrose and negative scores denoted a preference for water.

psychLight2 [6] = type: cell-based, human
Procedure: Compounds unlikely to bind to the sensor should produce minimal to no response in either agonist or antagonist mode. Therefore, a ligand score was calculated as: […]

psychLight2 [7] = assay: PSYLI2 high-content imaging, agonist mode; type: cell-based, human; conditions: 10 μM compound, hit limit 1 SD from vehicle
Procedure: (§2) High-Content Imaging Experiments. Glass bottom 96-well plates (P96-1.5H-N, Cellvis) were coated with 50 μg/mL of poly-D-lysine (Sigma, P6407-5MG) and 10 μg/mL laminin (Sigma, L2020) overnight in an incubator (37° C., 5% CO2). […] Immediately prior to an experiment, stock solutions of drugs in DMSO (10 mM) were first diluted 1:100 in imaging media distributed across an empty 96-well plate (treatment plate) in triplicates following a randomized plate map. […] Cells grown in a separate 96-well plate (assay plate) were gently washed (3×) with imaging media, and the wells were filled with an appropriate volume of imaging media for the respective experiment (vide infra).
(§3) For agonist mode, […] of imaging media was added to each well of the assay plate. Wells were then imaged on a Lecia DMi8 using Leica Application Suite X (V3.6.0.20104) at 40×(N.A.=0.6) with 5 regions of interest (ROI) taken per well using the default 5 ROI pattern for each well with no bias to location and no overlap of the ROIs (exposure=350 ms, LED power=80%). Next, 20 μL from the treatment plate was transferred to the assay plate for a total 1:1000 dilution of drug (10 μM drug, 0.1% DMSO). […] All final concentrations of drugs were 10 μM (0.1% DMSO) in agonist mode unless stated otherwise. After 5 min of incubation, the same sites were re-imaged using the same settings.
Once imaging was complete, the images were exported, put into a stack, and analyzed using ImageJ Fiji (ver. 1.51v) by using the rectangle function to draw an ROI around the cell membrane (one cell per image) on both the pre- and posttreatment images. ROI sizes within each plate were kept the same and saved to the ROI manager in ImageJ (ctrl+T). Images were then measured using the “multi measure” function in the ROI manager. Measurements were saved and exported. Analysis of the data was done by taking the average of each individual well's ROIs before and after drugs were added. Then the ΔF/F values for each well were calculated using the following equation: […]
as §2, with “Glass” for “High-Content Imaging Experiments. Glass”, “50 µg/mL” for “50 μg/mL”, “10 pg/mL of” for “10 μg/mL”, “were” for “were first”, “in triplicate” for “in triplicates”, “washed 3×” for “washed (3×)”
as §3, with “agonist mode experiments,” for “agonist mode,”, “media were” for “media was”, “20 pL” for “20 μL”, “plate containing” for “plate for”, “a” for “a total”, “(10 pM as the final concentration in” for “(10 μM drug,”
Once imaging was complete, the images were exported, and analyzed using self-written MATLAB script. Script will be deposit on to Github. In short, segmentation was performed on individual images and a mask highlighting the membrane of the HEK293T cells was generated. Pixel intensities were obtained from the mask-highlighted area and exported into Excel. The ΔF/F values for each well were calculated using the following equation: […]

C57BL/6J mice [8] = assay: Head-twitch response (HTR) assay; type: in vivo, mouse; conditions: i.p., multiple doses
Procedure: as §1

C57BL/6J mice [9] = assay: Forced swim test (FST); type: in vivo, mouse
[10] = system: embryonic rat cortical neurons; assay: Dendritogenesis (Sholl analysis) in cultured cortical neurons; type: cell-based
Procedure: For the dendritogenesis experiments conducted using cultured E18 cortical neurons, timed-pregnant Sprague Dawley rats were obtained from Charles River Laboratories (Wilmington, MA). Full culturing, staining, and analysis details were performed as previously described.

[11] = Plate reader screening for compound fluorescence (cell-free); type: physicochemical; conditions: 10 μM, excitation 465 nm, emission 518 nm
psychLight2 [12] = type: cell-based, mouse
[13] = system: 5-HT levels reported by psychLight2 in DRN, BNST, BLA, OFC; type: in vivo, mouse; conditions: 10 mg/kg, 30 mins prior to imaging
[14] = system: psychLight2 response to electrically evoked 5-HT release; set-up: species or system mouse; conditions: 50 mM escitalopram as printed

## COc1ccc2c(CCN(C)C)c[nH]c2c1 [6-MeO, 6-methoxy-N,N-dimethyltrypta-mine]
psychLight
  Schild regression (pA2) outcome: significantly less potent
psychLight2 [1]
  fluorescence intensity change, high content imager with psychLight2: −3.0±2.7%
psychLight1 [2]
  fluorescence intensity change, confocal with psychLight1: −1.1±4.6%
psychLight1 [3]
  binding shown by competing off 5-HT: capable of binding to the receptor despite the fact that they lack efficacy; also recorded: capable of binding to the receptor despite lacking efficacy; also recorded: can compete off 5-HT resulting in a reduction in psychLight fluorescence

## COc1ccc2c(ccn2C[C@@H](C)N(C)C)c1.O=C(O)/C=C/C(=O)O [AAZ-A-154]
psychLight
  Schild regression (pA2) outcome: psychLight competitive antagonist
[4]
  selectivity across receptor-based sensors: high selectivity for 5-HT2 receptors
C57BL/6J mice [5]
  locomotion: a high dose of the compound did decrease locomotion; also recorded: a high dose of AAZ-A-154 decreased locomotion; also recorded: only decreases locomotion at a very high dose (100 mg/kg)
VMAT2-HET mice; 15 mg/kg i.p.
  sucrose preference of WT animals: had no effect on WT animals; also recorded: did not modify sucrose preference in the WT animals
VMAT2-HET mice; VMAT2-HET mice, single injection 15 mg/kg, listed as AAZ, 15 mg/kg
  persistence of anti-anhedonic effect: at least 12 days
VMAT2-HET mice; rodents, single administration
  duration of beneficial behavioral effects: > 1 week and > 2 week
VMAT2-HET mice; single injection 15 mg/kg i.p.
  sucrose preference of VMAT2-HET mice after dosing: sucrose preference that was indistinguishable from WT controls
psychLight2 [6]
  ligand score: favorable ligand score
psychLight2 [7]
  screen outcome in agonist mode: decreased the intrinsic fluorescence of psychLight
C57BL/6J mice [8]
  head-twitch response (HTR): did not produce any head-twitches, even up to doses as high as 100 mg/kg; also recorded: failed to produce any head-twitches, even up to doses as high as 100 mg/kg
C57BL/6J mice [9]; 20 mg/kg i.p.
  immobility in the forced swim test: decreased immobility
C57BL/6J mice [9]; single administration 20 mg/kg, tested 30 min and 1 week later
  time course of antidepressant-like effects in FST: both rapid (30 min) and long-lasting (1 week) antidepressant-like effects
[10]
  dendritic arbor complexity (Sholl analysis): increased dendritic arbor complexity; also recorded: increases dendritic arbor complexity to a comparable extent as the fast-acting antidepressant ketamine
  effect on dendritic growth in presence of ketanserin: abrogated by the 5-HT2A antagonist ketanserin; also recorded: abolished by the 5-HT2R antagonist ketanserin

## CCN(CC)C(=O)[C@@H]1C=C2c3cccc4[nH]c(Br)c(c34)C[C@H]2N(C)C1 [BOL-148, 2-bromo-lysergic acid di-ethylamide]
[11]
  origin of fluorescence signal, cell-free vs PSYLI2 cells: due to the inherent fluorescence of these compounds, and not due to activation of the sensor
psychLight2 [7]
  screen outcome in agonist mode: producing positive signals; also recorded: produced unexpected fluorescence signals

## CP(C)C.F[P-](F)(F)(F)(F)F.F[P-](F)(F)(F)(F)F.NCCc1c[nH]c2ccc(O)cc12.[Ru+2].c1ccc(-c2ccccn2)nc1.c1ccc(-c2ccccn2)nc1 [RuBi-5-HT]
psychLight2 [12]
  ΔpL2/tdT (psychLight2 to tdTomato ratio vs baseline): 111.2%±0.7%

## CN(C)CCC[C@@]1(c2ccc(F)cc2)OCc2cc(C#N)ccc21 [escitalopram, escitalopram oxalate]
[13]
  effect on 5-HT dynamics following foot shock: mitigated the reduction in 5-HT levels observed following foot shock; also recorded: delayed the return of elevated 5-HT levels to baseline
[14]
  ΔF/F of psychLight2 response to electrical stimuli: 18.4%±4.3%
